In US12534457B2, “Heteroaryl derivative compounds, and uses thereof” (Voronoi Inc., priority 2021, dated 2026):

System: Ba/F3 cells expressing EGFR Del19/C797S (EGFR DC)
Test: Proliferation inhibitory activity, Ba/F3 cells expressing EGFR Del19/C797S (CellTiter-Glo)
Format: cell-based
Conditions: Mus musculus, BaF3, 72 hours of compound treatment
Outline: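 Viability after 72 h of compound exposure was measured by luminescence (CellTiter-Glo) in Ba/F3 lines transduced with mutant EGFR. Final concentrations spanned 0.2 nM–5 μM over 12 threefold steps. Growth relative to untreated control gave GI50 values; each test was run three times.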

SMILES	GI50
COc1cc(N2CCC(N3CCN(C)CC3)CC2)ccc1Nc1cc(N2OCC3(CC3)[C@H]2c2ccccc2)ncn1 [Example 234, (R)—N-(2-methoxy-4-(4-(4-methylpiperazin-1-yl)piperidin-1-yl)phenyl)-6-(7-phenyl-5-oxa-6-azaspiro[2.4]heptan-6-yl)pyrimidin-4-amine]	50 to 500 nM
C#Cc1cc(Nc2cc(N3OCC[C@@H]3c3cccc(F)c3F)ncn2)c(OC)cc1N1CCN(C)CC1 [Example 200, (R)-6-(3-(2,3-difluorophenyl)isoxazolidin-2-yl)-N-(5-ethynyl-2-methoxy-4-(4-methylpiperazine-1-yl)phenyl)pyrimidin-4-amine]	< 50 nM
COc1cc(N2CCC(N3CCN(C4COC4)CC3)CC2)ccc1Nc1cc(N2OCC[C@@H]2c2cccc(F)c2F)ncn1 [Example 209, (R)-6-(3-(2,3-difluorophenyl)isoxazolidin-2-yl)-N-(2-methoxy-4-(4-(4-(oxetan-3-yl)piperazin-1-yl)piperidin-1-yl)phenyl)pyrimidin-4-amine]	< 50 nM
COc1cc(Nc2cc(N3OCC[C@@H]3c3ccccc3)ncn2)ccc1N1CCC(N2CCN(CCO)CC2)CC1 [Example 121, (R)-2-(4-(1-(2-methoxy-4-((6-(3-phenylisoxazolidin-2-yl)pyrimidin-4-yl)amino)phenyl)piperidin-4-yl)piperazin-1-yl)ethan-1-ol]	< 50 nM
CN(C)C1CCN(c2ccc(Nc3cc(N4OCC[C@@H]4c4ccccc4)ncn3)nc2)CC1 [Example Compound 138, (R)-N-(5-(4-(dimethylamino)piperidin-1-yl)pyridin-2-yl)-6-(3-phenylisoxazolidin-2-yl)pyrimidin-4-amine]	< 50 nM
COc1cc(N2CCC(N3CCN(C)CC3)CC2)ccc1Nc1cc(N2OCC[C@@H]2c2cccc(C(F)(F)F)c2)ncn1 [Example 27, (R)—N-(2-methoxy-4-(4-(4-methylpiperazin-1-yl)piperidin-1-yl)phenyl)-6-(3-(3-(trifluoromethyl)phenyl)isoxazolidin-2-yl)pyrimidin-4-amine]	50 to 500 nM
COc1cc(N2CCC(N3CCN(CC4CC4)CC3)CC2)ccc1Nc1cc(N2OCC[C@@H]2c2cccc(F)c2F)ncn1 [Example 210, (R)—N-(4-(4-(4-(cyclopropylmethyl)piperazin-1-yl)piperidin-1-yl)-2-methoxyphenyl)-6-(3-(2,3-difluorophenyl)isoxazolidin-2-yl)pyrimidin-4-amine]	< 50 nM
COc1cc(N2CCC(N3CCN(C(C)C)CC3)CC2)ccc1Nc1cc(N2OCC[C@@H]2c2cccc(F)c2F)ncn1 [Example 222, (R)-6-(3-(2,3-difluorophenyl)isoxazolidin-2-yl)-N-(4-(4-(4-isopropylpiperazin-1-yl)piperidin-1-yl)-2-methoxyphenyl)pyrimidin-4-amine]	< 50 nM
COc1cc(N2CCC(N3CCN(C)CC3)CC2)ccc1Nc1cc(N2OCC[C@@H]2c2cccc(C(F)(F)F)c2F)ncn1 [Example 28, (R)-6-(3-(2-fluoro-3-(trifluoromethyl)phenyl)isoxazolidin-2-yl)-N-(2-methoxy-4-(4-(4-methylpiperazin-1-yl)piperidin-1-yl)phenyl)pyrimidin-4-amine]	50 to 500 nM
COc1cc(N2CCC(N3CCN(C)CC3)CC2)c(C(C)=O)cc1Nc1cc(N2OCC[C@@H]2c2cccc(F)c2F)ncn1 [Example 145, (R)-1-(5-((6-(3-(2,3-difluorophenyl)isoxazolidin-2-yl)pyrimidin-4-yl)amino)-4-methoxy-2-(4-(4-methylpiperazin-1-yl)piperidin-1-yl)phenyl)ethan-1-one]	< 50 nM
c1ccc([C@H]2CCON2c2cc(Nc3ccc(N4CCNCC4)cc3)ncn2)cc1 [Example 77, (R)-6-(3-phenylisoxazolidin-2-yl)-N-(4-(piperazin-1-yl)phenyl)pyrimidin-4-amine]	< 50 nM
COc1cc(N2CCC(N3CCN(C)CC3)CC2)ccc1Nc1cc(N2OCC[C@@H]2c2cncc(F)c2)ncn1 [Example 169, (R)-6-(3-(5-fluoropyridin-3-yl)isoxazolidin-2-yl)-N-(2-methoxy-4-(4-(4-methylpiperazin-1-yl)piperidin-1-yl)phenyl)pyrimidin-4-amine]	50 to 500 nM
Fc1cccc([C@H]2CCON2c2cc(Nc3ccc([C@H]4CCON4)cc3)ncn2)c1F [Example 174, 6-((R)-3-(2,3-difluorophenyl)isoxazolidin-2-yl)-N-(4-((R)-isoxazolidin-3-yl)phenyl)pyrimidin-4-amine]	50 to 500 nM
COc1cc(N2CCC(N3CCN(C)C(=O)C3)CC2)ccc1Nc1cc(N2OCC[C@@H]2c2cccc(F)c2F)ncn1 [Example 224, (R)-4-(1-(4-((6-(3-(2,3-difluorophenyl)isoxazolidin-2-yl)pyrimidin-4-yl)amino)-3-methoxyphenyl)piperidin-4-yl)-1-methylpiperazin-2-one]	< 50 nM
CN1CCN(C2CCN(c3ccc(Nc4cc(N5OCC[C@@H]5c5cc(F)cc(F)c5)ncn4)cc3S(C)(=O)=O)CC2)CC1 [Example 24, (R)-6-(3-(3,5-difluorophenyl)isoxazolidin-2-yl)-N-(4-(4-(4-methylpiperazin-1-yl)piperidin-1-yl)-3-(methylsulfonyl)phenyl)pyrimidin-4-amine]	50 to 500 nM
CN1C2CC1CN(c1ccc(Nc3cc(N4OCC[C@@H]4c4ccccc4)ncn3)cc1)C2 [Example 136, N-(4-(6-methyl-3,6-diazabicyclo[3.1.1]heptan-3-yl)phenyl)-6-((R)-3-phenylisoxazolidin-2-yl)pyrimidin-4-amine]	< 50 nM
Fc1ncc(N2C[C@@H]3C[C@H]2CO3)cc1Nc1cc(N2OCC[C@@H]2c2ccccc2)ncn1 [Example 74, N-(5-((1S,4S)-2-oxa-5-azabicyclo[2.2.1]heptan-5-yl)-2-fluoropyridin-3-yl)-6-((R)-3-phenylisoxazolidin-2-yl)pyrimidin-4-amine]	< 50 nM
Cc1cc(Nc2cc(N3OCC[C@@H]3c3ccccc3)ncn2)ccc1N1CCC(N2CCN(C)CC2)CC1 [Example 53, (R)—N-(3-methyl-4-(4-(4-methylpiperazin-1-yl)piperidin-1-yl)phenyl)-6-(3-phenylisoxazolidin-2-yl)pyrimidin-4-amine]	< 50 nM
COc1cc(P2(=O)CCN(C3CC3)CC2)ccc1Nc1cc(N2OCC[C@@H]2c2ccccc2)ncn1 [Example 81, (R)-1-cyclopropyl-4-(3-methoxy-4-((6-(3-phenylisoxazolidin-2-yl)pyrimidin-4-yl)amino)phenyl)-1,4-azaphosphinane 4-oxide]	50 to 500 nM
COc1cc(N2CCC(N3CCN(C)CC3)CC2)ccc1Nc1cc(N2OCC[C@@H]2c2cccc3ccccc23)ncn1 [Example 36, (R)—N-(2-methoxy-4-(4-(4-methylpiperazin-1-yl)piperidin-1-yl)phenyl)-6-(3-(naphthalen-1-yl)isoxazolidin-2-yl)pyrimidin-4-amine]	50 to 500 nM
CN1CCN(c2ccc(Nc3cc(N4OCC[C@H]4c4ccccc4)ncn3)cc2)CC1 [Example 2, (S)—N-(4-(4-methylpiperazin-1-yl)phenyl)-6-(3-phenylisoxazolidin-2-yl)pyrimidin-4-amine]	50 to 500 nM
COc1cc(N2CCC3(CC2)CCN(C(C)(C)CF)CC3)c(-c2cnn(C)c2)cc1Nc1cc(N2OCC[C@@H]2c2cccc(F)c2F)ncn1 [Example 195, (R)-6-(3-(2,3-difluorophenyl)isoxazolidin-2-yl)-N-(4-(9-(1-fluoro-2-methylpropan-2-yl)-3,9-diazaspiro[5.5]undecan-3-yl)-2-methoxy-5-(1-methyl-1H-pyrazol-4-yl)phenyl)pyrimidin-4-amine]	< 50 nM
CN1CCN(C2CCN(c3cc(OCC(F)(F)F)c(Nc4cc(N5OCC[C@@H]5c5ccccc5)ncn4)cc3-c3cnn(C)c3)CC2)CC1 [Example 164, (R)—N-(5-(1-methyl-1H-pyrazol-4-yl)-4-(4-(4-methylpiperazin-1-yl)piperidin-1-yl)-2-(2,2,2-trifluoroethoxy)phenyl)-6-(3-phenylisoxazolidin-2-yl)pyrimidin-4-amine]	< 50 nM
CCc1cc(Nc2cc(N3OCC[C@@H]3c3ccccc3)ncn2)ccc1N1CCC(N2CCN(C)CC2)CC1 [Example 117, (R)—N-(3-ethyl-4-(4-(4-methylpiperazin-1-yl)piperidin-1-yl)phenyl)-6-(3-phenylisoxazolidin-2-yl)pyrimidin-4-amine]	< 50 nM
COc1cc(N2CCC(N3CCN(C)CC3)CC2)c(C(C)C)cc1Nc1cc(N2OCC[C@@H]2c2cccc(F)c2F)ncn1 [Example 142, (R)-6-(3-(2,3-difluorophenyl)isoxazolidin-2-yl)-N-(5-isopropyl-2-methoxy-4-(4-(4-methylpiperazin-1-yl)piperidin-1-yl)phenyl)pyrimidin-4-amine]	< 50 nM
CCN1CC2CC(C1)N2C1CCN(c2ccc(Nc3cc(N4OCC[C@@H]4c4cccc(F)c4F)ncn3)c(OC)c2)CC1 [Example 220, 6-((R)-3-(2,3-difluorophenyl)isoxazolidin-2-yl)-N-(4-(4-(3-ethyl-3,6-diazabicyclo[3.1.1]heptan-6-yl)piperidin-1-yl)-2-methoxyphenyl)pyrimidin-4-amine]	< 50 nM
Fc1cc(F)cc([C@H]2CCON2c2cc(Nc3ccc(C4CCNCC4)c4c3OCC4)ncn2)c1 [Example 157, (R)-6-(3-(3,5-difluorophenyl)isoxazolidin-2-yl)-N-(4-(piperidin-4-yl)-2,3-dihydrobenzofuran-7-yl)pyrimidin-4-amine]	< 50 nM
COc1cc(N2CCC(N3CCN(C)CC3)CC2)ccc1Nc1cc(N2OCC[C@@H]2c2ccc(F)cc2)ncn1 [Example 33, (R)-6-(3-(4-fluorophenyl)isoxazolidin-2-yl)-N-(2-methoxy-4-(4-(4-methylpiperazin-1-yl)piperidin-1-yl)phenyl)pyrimidin-4-amine]	< 50 nM
CCN1C[C@H]2C[C@@H]1CN2C1CCN(c2ccc(Nc3cc(N4OCC[C@@H]4c4ccccc4)ncn3)c(OC)c2)CC1 [Example 116, N-(4-(4-((1R,4R)-5-ethyl-2,5-diazabicyclo[2.2.1]heptan-2-yl)piperidin-1-yl)-2-methoxyphenyl)-6-((R)-3-phenylisoxazolidin-2-yl)pyrimidin-4-amine]	< 50 nM
